We go through four compounds from BindingDB's records for PubMed 39892094 (University of Lubeck and University Medical Center …).

Data set [1] can be described thus: Reversal of ABCG2 (unknown origin)-mediated multidrug resistance transfected in dog MDCK-II-BCRP cells assessed as increase in SN-38-mediated cytotoxicity incubated for 72 hrs in presence of SN-38 by MTT assay. On the technique in general: Tetrazolium assays rely on reduction of a dye to a coloured formazan, in cell work by metabolically active cells.
Data set [2] can be described thus: Inhibition of MCT-1 in human A549 cells assessed as potentiation of 3-BP-mediated cytotoxicity by measuring decrease in cell viability incubated for 72 hrs in presence of 3-BP by MTT assay.
Data set [3] can be described thus: Reversal of ABCB1-mediated multidrug resistance in human A2780 ADR cells assessed as increase in doxorubicin-mediated cytotoxicity incubated for 72 hrs in presence of doxorubicin by MTT assay.
Data set [4] in a line: Reversal of ABCC1-mediated multidrug resistance in human NCI-H69AR cells assessed as increase in doxorubicin-mediated cytotoxicity incubated for 72 hrs in presence of doxorubicin by MTT assay.

pEC50, pIC50: −log10 of the molar value.

As a reminder, the pEC50 is −log10 of the EC50, conventionally taken in molar units. As a reminder, the pIC50 is −log10 of the IC50, conventionally taken in molar units. Take `O=C(Cn1nc(C(=O)Nc2ccccn2)c2ccccc21)Nc1cc(Cl)ccc1Cl`: the pEC50 in data set [1] is 6.49; in data set [3] it was 7.05; in data set [4], 4.48. In addition, in data set [2], the pIC50 was 5.72.

For `COc1cccc(NC(=O)Cn2nc(C(=O)Nc3cccc(OC)c3)c3ccccc32)c1`, the negative-log EC50 (pEC50) in data set [3] was 5.70; in data set [4], 5.07.

Regarding `COc1cccc(NC(=O)c2nn(CC(=O)Nc3ccccc3OC)c3ccccc23)c1`, the pEC50 in data set [1] is 6.22; in data set [3], 5.48; in data set [4], 5.26.

For the compound `O=C(Cn1nc(C(=O)Nc2cccnc2)c2ccccc21)Nc1ccc(Cl)cc1`, the pEC50 is 5.98 in data set [1], 5.33 in data set [3] and 5.16 in data set [4]. In addition, the pIC50 in data set [2] was 5.48.
